The test system of one data set is B16F10 melanoma tumor. Kind of data set: In vivo anticancer efficacy, subcutaneous B16F10 melanoma tumor model. The arrangement: species or system BALB/c nude mice. The settings on record: four i.v. courses, 3.67 μmol·kg^−1 (TCO-P4 36.7 μmol·kg^−1), n = 5. How it is done:
Tumor-bearing mice were established by subcutaneously injecting a suspension of 5 × 10^5 B16F10 cells per mouse into the front flank of each nude mouse. When tumor volume reached 50−70 mm^3, the animals were randomly divided into five groups (n = 5). The mice were administered different compounds suspended in PBS via the tail vein every 3 days for a total of four times.
The mice underwent four treatment courses on day 0, day 3, day 6, and day 9. Tumor size and body weight were measured every day. Tumor volume was calculated via the following formula: V = 1/2 × (minor axis) × (major axis)[2].
After 12 days, the mice were sacrificed and dissected to obtain tumor tissues and main organs, including heart, liver, spleen, lung, and kidney. Subsequently, all tissues were fixed in a 4% paraformaldehyde solution, routinely paraffin-embedded and sectioned, and then stained with hematoxylin and eosin, as well as using TdT-mediated dUTP nick-end labeling (TUNEL) for subsequent pathological analysis. TUNEL-positive cells appeared fluorescent green, representing the apoptosis of tumor cells (nuclei were fluorescent blue, stained with DAPI).
13. In vivo anticancer efficacy […]
13.2 Calculation of the tumor growth inhibition values (TGI)
Tumor growth inhibition values (TGI) were calculated using the following formula: TGI (%) = (1 − RTVtreatment/
RTVcontrol)*100. RTV refers to relative tumor volume, representing the ratio of the volume at the end of treatment to the
volume at the beginning of treatment. […]

Data set [1] is classed as physicochemical. The settings on record: for intact (%) under 10 mM GSH: 520 nm HPLC–MS (PyTz UV–Vis). The method, then: All tetrazine compounds were diluted to a concentration of 50 μM or 2 μM using PBS (10% DMSO, pH 7.4). A stock solution of GSH (400 mM in PBS) was then added to achieve a final concentration of 10 mM. The mixture was homogenized and incubated at 37 °C for 12 h. The stability of the compounds (including all peptide conjugates and PmTz) was assessed by measuring the decrease in peak area at 520 nm (with the initial peak area at 0 min defined as 100%). This measurement was monitored by HPLC–MS. Similarly, the stability of PyTz was determined by monitoring the decrease in peak intensity at 520 nm using UV–Vis. Statistical analysis was performed on data from three replicates to calculate the mean and standard deviation. […]
Response 1: We appreciate your comment. We conducted stability tests on RGD-Dox and RGD-SN-38 in 10 mM GSH at a concentration of 2 μM, which is below the critical micelle concentrations. After incubating at 37 °C for 12 hours, we observed that 95% of RGD-Dox and 85% of RGD-SN-38 remained intact. This stability is slightly less than […]
the observed stability is intrinsic to the peptide-drug conjugates, with a slight enhancement due to micelle […]
concentrations, after 12 hours of incubation at 37 °C (Figure S46). […]
intrinsic to the PDCs, with a slight enhancement by micelle formation.
Details of these experiments have been included in the Supplementary Information (Page S42), as outlined below:
RGD-Dox and RGD-SN-38 were diluted to a concentration of 2 μM using PBS (10% DMSO, pH 7.4). A stock solution of GSH (400 mM in PBS) was then added to achieve a final concentration of 10 mM. The mixture was homogenized and incubated at 37 °C for 12 hours. Stability was assessed by measuring the decrease in peak area at 520 nm (with the initial peak area at 0 min defined as 100%). This measurement was monitored by HPLC–MS. Statistical analysis was performed on data from three replicates to calculate the mean and standard deviation.

Another data set relates to LX2 cells. Description: Cytotoxicity (CCK8, 48 h) of drugs, PDCs, activable-Drugs and TCO, LX2. The settings on record: 200 μM TCO. The format is cell-based, Human.
For a further data set, the system named is MDA-MB-231 cells. Kind of data set: Cytotoxicity (CCK8, 48 h) of drugs, PDCs, activable-Drugs and TCO, MDA-MB-231. To be noted: 200 μM TCO. The format is cell-based, Human.
In a further data set the test system is HepG2 cells. Description: Cytotoxicity (CCK8, 48 h) of drugs, PDCs, activable-Drugs and TCO, HepG2. The settings on record: 200 μM TCO.
Another data set deals with B16F10 cells. Description: Cytotoxicity (CCK8, 48 h) of drugs, PDCs, activable-Drugs and TCO, B16F10. The format is cell-based, Mouse. To be noted: 200 μM TCO.
In the next data set the test system is U87 cells. Description: Cytotoxicity (CCK8, 48 h) of drugs, PDCs, activable-Drugs and TCO, U87. Format: cell-based, Human. The settings on record: 200 μM TCO.
For another data set, the system named is SKOV3 cells. Description: Cytotoxicity (CCK8, 48 h) of drugs, PDCs, activable-Drugs and TCO, SKOV3. The format is cell-based, Human. To be noted: 200 μM TCO.
The mark [2] stands for this setting: 1 h, Data 1, 50 μM, PBS pH 7.4, 10% DMSO, 37 °C.
Setting [3] is: 1 h, Data 2, 50 μM, PBS pH 7.4, 10% DMSO, 37 °C.
[4] abbreviates: 1 h, Data 3, 50 μM, PBS pH 7.4, 10% DMSO, 37 °C.

Entries after “also recorded” stand apart in the source; their conditions may differ. Read-outs that look alike come from different tables or passages of the source.

Consider `COCCOCCOCCOCCC(=O)NCCC1(O)CC/C=C/CCC1` (racemic) [TCO-P4], for which the “tumor growth / inhibition in words” value in the data set on B16F10 melanoma tumor is “did not exhibit significant tumor inhibition; also recorded: rapid tumor growth”.
Consider `Cc1nnc(-c2ncccn2)nn1` [PmTz, pyrimidine tetrazine, reference compound], for which the “intact (%) under 10 mM GSH” value was 86.4895% in data set [1] (setting [2]); 82.9483% in data set [1] (setting [3]); 87.2017% in data set [1] (setting [4]); 75.526% in data set [1] (3 h, Data 1, 50 μM, PBS pH 7.4, 10% DMSO, 37 °C); 72.3872% in data set [1] (3 h, Data 2, 50 μM, PBS pH 7.4, 10% DMSO, 37 °C); 74.6204% in data set [1] (3 h, Data 3, 50 μM, PBS pH 7.4, 10% DMSO, 37 °C). In addition, the “intact (%) under 10 mM GSH” value in data set [1] (5 h, Data 1, 50 μM, PBS pH 7.4, 10% DMSO, 37 °C) is 63.0897%; in data set [1] (5 h, Data 2, 50 μM, PBS pH 7.4, 10% DMSO, 37 °C), 68.3168%; in data set [1] (5 h, Data 3, 50 μM, PBS pH 7.4, 10% DMSO, 37 °C) it was 70.9327%; in data set [1] (8 h, Data 1, 50 μM, PBS pH 7.4, 10% DMSO, 37 °C), 50.7674%; in data set [1] (8 h, Data 2, 50 μM, PBS pH 7.4, 10% DMSO, 37 °C), 52.9065%; in data set [1] (8 h, Data 3, 50 μM, PBS pH 7.4, 10% DMSO, 37 °C), 52.3167%. For the same molecule, the “intact (%) under 10 mM GSH” value amounted to 38.6932% in data set [1] (12 h, Data 1, 50 μM, PBS pH 7.4, 10% DMSO, 37 °C); 39.3861% in data set [1] (12 h, Data 2, 50 μM, PBS pH 7.4, 10% DMSO, 37 °C); 35.5445% in data set [1] (12 h, Data 3, 50 μM, PBS pH 7.4, 10% DMSO, 37 °C). The “remained intact with 10 mM GSH” value in data set [1] (12 h, 37 °C, 50 μM, PBS pH 7.4, 10% DMSO, HPLC–MS peak area 520 nm, mean of n = 3) came out at 38%.
On to `c1ccc(-c2nnc(-c3ccccn3)nn2)nc1` [PyTz, reference compound], for which the “intact (%) under 10 mM GSH” value in data set [1] (0.5 h, Data 1, 50 μM, PBS pH 7.4, 10% DMSO, 37 °C) turned out to be 53%; in data set [1] (0.5 h, Data 2, 50 μM, PBS pH 7.4, 10% DMSO, 37 °C), 43.8%; in data set [1] (0.5 h, Data 3, 50 μM, PBS pH 7.4, 10% DMSO, 37 °C), 45%; in data set [1] (setting [2]), 19%; in data set [1] (setting [3]), 19.7%; in data set [1] (setting [4]) it was 15.4%. In addition, the “intact (%) under 10 mM GSH” value in data set [1] (1.5 h, Data 1, 50 μM, PBS pH 7.4, 10% DMSO, 37 °C) was 1.3%; in data set [1] (1.5 h, Data 2, 50 μM, PBS pH 7.4, 10% DMSO, 37 °C), 4%; in data set [1] (1.5 h, Data 3, 50 μM, PBS pH 7.4, 10% DMSO, 37 °C), 2.9%. In data set [1] (pH 7.4), the “time to degradation with 10 mM GSH” value is reported as no more than 3 h.
`C1=C/CCCCCC/1` [TCO, trans-cyclooctene]: the figures for the “LX2 (Cell viability%)” value in the data set on LX2 cells (Data 1), with LX2 cells (Data 2) and in the data set with LX2 cells (Data 3) were 99.7395%, 98.5462% and 97.8594%, respectively. For the same molecule, the entries for the “MDA-MB-231 (Cell viability%)” value in the data set on MDA-MB-231 cells (Data 1), in the data set with MDA-MB-231 cells (Data 2) and with MDA-MB-231 cells (Data 3) were 96.0832%, 97.4309% and 97.8186%, respectively. For the same molecule, the “HepG2 (Cell viability%)” value in the data set on HepG2 cells (Data 1) stood at 94.3888%; in the data set with HepG2 cells (Data 2), 93.5935%; with HepG2 cells (Data 3) it was 92.7384%. Also, the “B16F10 (Cell viability%)” value in the data set on B16F10 cells (Data 1) was determined as 97.5688%; with B16F10 cells (Data 2), 97.508%; in the data set with B16F10 cells (Data 3), 97.9504%. In addition, the entries for the “U87 (Cell viability%)” value in the data set with U87 cells (Data 1), in the data set with U87 cells (Data 2) and in the data set with U87 cells (Data 3) were 96.2952%, 96.092% and 96.4775%, respectively. Also, the “SKOV3 (Cell viability%)” value in the data set with SKOV3 cells (Data 1) is listed as 93.7367%; with SKOV3 cells (Data 2) it was 92.4982%; with SKOV3 cells (Data 3) it was 93.3583%.

The values are drawn from article PMC10987521, “An all-in-one tetrazine reagent for cysteine-selective labeling and bioorthogonal activable prodrug construction” (Nature Communications, 2024).
